A word on the IC50: it is the concentration that inhibits the measured activity by half.

Test system in one assay: not listed separately
Kind of assay: Inhibition of recombinant Toxoplasma gondii Farnesyl pyrophosphate synthase.
Details: not given
Turning to `CCCCCCCSCC(P(=O)(O)O)P(=O)(O)O`, the IC50 worked out at 69 nM.

Consider `CCCCCCCCCCSCC(P(=O)(O)O)P(=O)(O)O`, for which the half-maximal inhibitory concentration (IC50) came to 21 nM. On to `CCCCCCC[S+]([O-])CC(P(=O)(O)O)P(=O)(O)O` (stereo unspecified), for which the IC50 is 9 nM. For the compound `CCCCCCCCCCS(=O)(=O)CC(P(=O)(O)O)P(=O)(O)O`, the 50% inhibitory concentration (IC50) was found to be 270 nM.

The next assay relates to Toxoplasma gondii. Kind of assay: Antiparasitic activity against Toxoplasma gondii tachyzoites infected in hTRET cells assessed as parasitic growth inhibition. The assay is classed as functional, organism-based.
Details: not given
As for `CCCCCCCSCC(P(=O)(O)O)P(=O)(O)O`, the EC50 is 970 nM. Consider `CCCCCCCCCCSCC(P(=O)(O)O)P(=O)(O)O`, for which the EC50 came to 1800 nM.

For the compound `CCCCCCC[S+]([O-])CC(P(=O)(O)O)P(=O)(O)O` (stereo unspecified), the EC50 stood at 5000 nM. As to `CCCCCCCNCC(P(=O)(O)O)P(=O)(O)O`, the EC50 was more than 10000 nM. Same read-out and setting: the result for `CCCCCCCCCCS(=O)(=O)CC(P(=O)(O)O)P(=O)(O)O` reads 110 nM; that for `O=P(O)(O)C(CSCCOc1cccc(Oc2ccccc2)c1)P(=O)(O)O`, 670 nM.

The next assay deals with Toxoplasma gondii. Nature of the assay: Antiparasitic activity against Toxoplasma gondii assessed as parasitic growth inhibition. The class given is functional, organism-based.
Details: not given
Regarding `N#CSCCOc1ccc(Oc2ccccc2)cc1`, the EC50 is 4800 nM. Still for that read-out and setting: in the case of `N#C[Se]CCOc1cccc(Oc2ccccc2)c1` it was 2870 nM; in that of `N#C[Se]CCOc1ccc(Oc2ccccc2)cc1`, 3700 nM.

Another assay relates to Toxoplasma gondii. Nature of the assay: Antiparasitic activity against Toxoplasma gondii tachyzoites infected in hTRET cells assessed as reduction in parasitic growth. The assay is classed as functional. The note with it: read-out: ED50 (the source's name).
For `CCCCCCCCCC(O)(P(=O)(O)O)P(=O)(O)O`, the EC50 amounted to 850 nM. Still for that read-out and setting: the result for `COC(=O)/C=C1/S/C(=N/N=C(/C)c2ccccn2)NC1=O` reads 200 nM; that for `COC(=O)/C=C1/S/C(=N/N=C(C)\C=N\O)NC1=O`, 490 nM; that for `C[C@@H](COC(=O)N1CCC(n2c(=O)n(C)c3ccccc32)CC1)N(Cc1ccccc1)Cc1ccccc1`, 200 nM. Turning to `O=C(OCCOCc1ccccc1)N1CCC(n2c(=O)[nH]c3ccccc32)CC1`, the EC50 stood at 500 nM. Same read-out and setting: the result for `COC(=O)/C=C1/S/C(=N/N=C\c2ccccc2O)NC1=O` reads 660 nM; that for `C[C@@H](COC(=O)NCCCn1c(=O)n(C)c2ccccc21)N(Cc1ccccc1)Cc1ccccc1`, 380 nM.

Test system in a further assay: not listed separately
Nature of the assay: Inhibition of Toxoplasma gondii Farnesyl pyrophosphate synthase.
Details: not given
`CCCCCCCCCC(O)(P(=O)(O)O)P(=O)(O)O` returned a half-maximal inhibitory concentration (IC50) of 130 nM.

Test system in the next assay: not listed separately
Kind of assay: Inhibition of Toxoplasma gondii Heptaprenyl Diphosphate Synthase Coq1 expressed in Escherichia coli BL21.
Details: not given
On to `CCCCCCCCCC(O)(P(=O)(O)O)P(=O)(O)O`, for which the 50% inhibitory concentration (IC50) stood at 2130 nM.

A further assay addresses T1, Bifunctional dihydrofolate reductase-thymidylate synthase (Toxoplasma gondii, UniProt Q07422).
T1 sequence (Q07422 whole entry): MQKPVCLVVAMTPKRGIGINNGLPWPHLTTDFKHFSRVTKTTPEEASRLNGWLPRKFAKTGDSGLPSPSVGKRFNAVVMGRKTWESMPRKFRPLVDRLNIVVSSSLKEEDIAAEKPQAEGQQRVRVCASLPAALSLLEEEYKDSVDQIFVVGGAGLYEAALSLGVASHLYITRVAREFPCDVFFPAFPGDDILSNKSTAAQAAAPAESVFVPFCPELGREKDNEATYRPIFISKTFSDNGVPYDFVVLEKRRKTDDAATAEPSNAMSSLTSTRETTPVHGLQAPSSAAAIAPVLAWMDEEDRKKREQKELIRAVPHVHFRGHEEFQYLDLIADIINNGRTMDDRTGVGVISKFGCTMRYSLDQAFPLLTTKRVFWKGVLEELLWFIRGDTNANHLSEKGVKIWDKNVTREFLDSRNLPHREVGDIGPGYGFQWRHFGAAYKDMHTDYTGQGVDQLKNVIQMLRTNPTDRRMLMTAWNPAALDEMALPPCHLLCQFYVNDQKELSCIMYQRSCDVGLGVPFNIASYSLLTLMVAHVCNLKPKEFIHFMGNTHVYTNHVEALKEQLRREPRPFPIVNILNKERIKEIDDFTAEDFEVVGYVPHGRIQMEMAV
Nature of the assay: Inhibition of Toxoplasma gondii Dihydrofolate reductase.
Details: not given
The compound `CCc1sc2nc(N)[nH]c(=O)c2c1Sc1ccc2ccccc2c1` yielded an IC50 of 8 nM. For the compound `CCc1sc2nc(N)[nH]c(=O)c2c1Sc1ccc(C(=O)N[C@@H](CCC(=O)O)C(=O)O)cc1`, the IC50 was 2 nM.

With `COc1ccc(CCCCCCC(=O)O)cc1Cc1cnc2nc(N)nc(N)c2c1OC`, half-maximal inhibition (IC50) required 3 nM. Still for that read-out and setting: the result for `COc1ccc(C#Cc2cccc(C(=O)O)c2)cc1Cc1cnc2nc(N)nc(N)c2c1OC` reads 5 nM.

As to `CCc1sc2nc(N)[nH]c(=O)c2c1Sc1ccc([N+](=O)[O-])cc1`, half-maximal inhibition (IC50) required 8 nM.

Take `CCc1sc2nc(N)[nH]c(=O)c2c1Sc1ccc(Br)cc1`: the IC50 stood at 10 nM.

Another assay has as its system Toxoplasma gondii. Nature of the assay: Antiparasitic activity against Toxoplasma gondii EGS infected in human HFF cells. The assay is classed as functional. The note with it: read-out: ED50 (the source's name).
On to `O=C(CCCCCCC(=O)Nc1ccccc1)NO` [VORINOSTAT], for which the EC50 came to 70 nM.

A further assay concerns Toxoplasma gondii. Kind of assay: Antiparasitic activity against Toxoplasma gondii RH tachyzoites infected in human HFF cells assessed as parasitic growth inhibition. The class given is functional. The settings on record: time 72 hrs, read-out: ED50 (the source's name).
In the case of `Cc1c(NC(=O)c2ccc(C(C)(C)C)cc2)cccc1-c1cn(C)c(=O)c(Nc2ccc(C(=O)N3CCOCC3)cc2)n1`, the EC50 amounted to 14600 nM. Same read-out and setting: in the case of `CCOc1ccc2cc(-c3nn(C(C)(C)C)c(N)c3C(N)=O)cnc2c1` it was 2760 nM; in that of `CO/N=C(\C(=O)OC)c1ccccc1CO/N=C(\C)c1cccc(C(F)(F)F)c1`, 500 nM; in that of `CC[C@]1(C)NC(=O)[C@H](CCCCCC(=O)[C@@H](C)OC(C)=O)NC(=O)[C@H]2C[C@H](C)CN2C(=O)[C@H](Cc2ccccc2)NC1=O`, 1 nM.

`CNc1[nH]c(Nc2ccc(C(=O)N3CCOCC3)cc2OC)nc2ncc(Cl)c1-2`: the EC50 was 5880 nM. Same read-out and setting: the result for `CCC(=O)CCCCC[C@@H]1NC(=O)[C@H]2C[C@H](C)CN2C(=O)[C@H](Cc2ccccc2)NC(=O)[C@](C)(CC)NC1=O` reads 11 nM; that for `CC(C)(C)C1CCC(CC2C(=O)C(=O)c3ccccc3C2O)CC1` (stereo unspecified), 1180 nM; that for `O=C(NC1CC1)c1ccc(N2CCC(Cc3ccccc3)CC2)nc1`, 2810 nM. In the case of `O=C1C(O)=C([C@H]2CC[C@H](c3ccc(Cl)cc3)CC2)C(=O)c2ccccc21` [ATOVAQUONE], the EC50 is 180 nM. The same measure, in the same setting: in the case of `CO/C=C(\C(=O)OC)c1ccccc1Oc1cc(Oc2ccccc2C#N)ncn1` [Azoxystrobin] it was 7050 nM. On the same count and under the same terms, the result for `OCCOCCN1CCN(C(c2ccccc2)c2ccc(Cl)cc2)CC1` (stereo unspecified) [HYDROXYZINE] reads 2500 nM. On to `Cc1coc2c1C(=O)C(=O)c1c-2ccc2c1CCCC2(C)C` [TANSHINONE IIA], for which the EC50 turned out to be 1000 nM.

These data come from ChEMBL document CHEMBL5505950, “An updated review of chemical compounds with anti-Toxoplasma gondii activity” (Eur J Med Chem, 2023).
